The test system of data set [1] is lung strip isolated from guinea pig. Kind of data set: arachidonic acid-induced contraction of lung strip isolated from guinea pig. Particulars: Cavia porcellus; 10 μM compound; 0.1 μM to 100 μM arachidonic acid; read-out: reduction in contractile response to arachidonic acid. The source says:
Action of 5-methyl-2-hydroxy-laurophenone-oxime on arachidonic acid-inducedcontraction of lung strip isolated from guinea pig:
The experimental arrangement for this test system was analogous to that described in Example 15, through lung strip isolated from guinea pig was the subject of testing. Contraction, in this test, was induced by rising concentrations of arachidonic acid (concentrated solution in ethanol, kept in N2 atmosphere) and cumulatively measured.

A further data set concerns sensitised guinea pig. Briefly: allergen (ovalbumin)-induced bronchoconstriction in vivo of sensitised guinea pig (allergic asthma of guinea pig). Conditions: for tolerance of additional/successive ovalbumin injections: pretreated animals, two additional (three successive) injections of 40 μg ovalbumin. The source says:
These pharmacological properties were largely verified by measuring methods which were, basically, known from the literature. They were, however, applied in a modified form. […] 63, 1 (1979); M. W. Schneider and J. M. Drazen, Amer. Rev. Resp. Dis. 121, 835 (1980); S. S. Yen and W. Kreutner, Agents Actions 10, 174 (1980); S. S. Yen, Prostaglandins 22, 183 (1981); Adcock, J. J.; Garland, L. G.; Brit. J. Pharmacol. 69, 167 (1980); W. Diamantis, J. L. Melton; D. Sofia et al., Europ. J. Pharmacol. 56, 407 (1979); P. Anderson, Brit. J. Pharmacol. 77, 301 (1982)].
It was, remarkably, observed that all control animals died of apnoea after one single intraperitoneal application of ovalbumin (40 μg/kg body weight), following protracted and extremely severe asthmatic reaction (anaphylactic shock?).
Action on allergen-induced bronchoconstriction in vivo of sensitised guinea pig ("allergic asthma of guinea pig"):
This test was applied to male guinea pigs, 30 to 35 days from sensitisation, using 330 mg of aluminium hydroxide and 33 μg of ovalbuminper one kilogram of body weight (fresh preparation in physiological sodium chloride solution).
(Method was modified according to P. Anderson, Brit. J. Pharmacol. 77, 301 (1982).) The animals were anaesthetised by intraperitoneal application of 1.3 g/kg body weight of urethane, while 2 mg/kg body weight of Pavulon® were intravenously injected for muscular relaxation. Intravenous injection of 40 μg of ovalbumin triggered off the allergen-induced bronchoconstriction which developed to the full scale of anaphylactic shock in all control animals, within few seconds. The animals, tracheostomised and with venous catheters, were artificially ventilated at rhythmic negative pressure in a tank respirator (f=16 min^-1; inspiration:expiration=1:1). Gas flow(V), breathing volume (VT), and ECG were checked in the course of pneumotachography. The animals had been pretreated by two intraperitoneal injections of finely crushed 5-methyl-2-hydroxylaurophenone-oxime, suspended in agar-agar. […]

Data set [2] addresses T1, lipoxygenase-1 from soybean (Glycine max, UniProt P08170).
T1 construct: purchased
T1 sequence (P08170 1-839): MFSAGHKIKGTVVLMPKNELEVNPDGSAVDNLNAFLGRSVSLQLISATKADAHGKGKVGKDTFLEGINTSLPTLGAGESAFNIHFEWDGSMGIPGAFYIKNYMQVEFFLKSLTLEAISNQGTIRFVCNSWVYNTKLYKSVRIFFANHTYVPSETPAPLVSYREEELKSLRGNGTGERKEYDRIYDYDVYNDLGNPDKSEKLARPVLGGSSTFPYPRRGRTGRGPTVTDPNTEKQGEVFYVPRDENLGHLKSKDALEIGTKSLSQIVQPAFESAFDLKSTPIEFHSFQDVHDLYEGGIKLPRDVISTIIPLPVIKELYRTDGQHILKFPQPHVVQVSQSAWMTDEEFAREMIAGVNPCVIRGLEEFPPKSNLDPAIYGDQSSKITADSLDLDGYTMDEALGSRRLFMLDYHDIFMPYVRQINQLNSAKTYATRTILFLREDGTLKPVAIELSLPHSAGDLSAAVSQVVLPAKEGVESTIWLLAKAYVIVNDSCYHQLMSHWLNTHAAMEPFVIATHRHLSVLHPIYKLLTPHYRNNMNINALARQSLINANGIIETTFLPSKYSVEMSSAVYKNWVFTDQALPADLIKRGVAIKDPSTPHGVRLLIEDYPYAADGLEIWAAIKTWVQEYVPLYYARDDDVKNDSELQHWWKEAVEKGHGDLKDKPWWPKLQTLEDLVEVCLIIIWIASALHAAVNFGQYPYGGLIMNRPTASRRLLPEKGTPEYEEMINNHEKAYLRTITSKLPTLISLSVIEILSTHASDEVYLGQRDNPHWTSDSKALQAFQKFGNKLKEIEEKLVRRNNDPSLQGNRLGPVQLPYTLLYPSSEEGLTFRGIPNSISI
Briefly: inhibition of soybean lipoxygenase-1. In kind it is biochemical. Particulars: ultimate concentration 1.0 mM; read-out: Inhibition (percent) of lipoxygenase from soybean. How it is done: Persuasive evidence to inhibition of lipoxygenase was produced by a suitable animal lipoxygenase which had been isolated from rabbit reticulocytes, using a method by Rapoport and coworkers /S. M. Rapoport et al., Eur. J. Biochem. 96, 545 (1979)/. A final concentration of 1 mM of most of the compounds, according to this invention, produced inhibition of 90 percent or more (cf. Example 20). Significant inhibition was even recordable from a final concentration of 0.1 mM of some of the compounds, according to this invention. Substance concentrations were varied to determine the titration curves of inhibition and from these the half-inhibition concentrations (I50 -values). A half-inhibition concentration of 7 μM was established for 5-methyl-2-hydroxy-laurophenone-oxime, an oxime of high anti-asthmatic effectiveness.
Lipoxygenase from rabbit reticulocytes was obtained in electrophoretically and immunologically pure form by means of the method described in the literature /S. M. Rapoport et al., Eur. J. Biochem. 96, 545 (1979)/. Lipoxygenase activity was determined at 25° C. by amperometric measurement of oxygen consumption by means of a Clark electrode in the following system: 0.1M potassium phosphate, pH 7.4, with 0.2-per-cent sodium cholate and 0.53 mM linoleic acid. The enzyme concentration was […] in the sample for measurement. The substances submitted for testing were dissolved in methyl glycol (fresh distillation in vacuum) and pre-incubated ten minutes with the enzyme at measurement temperature and in the absence of sodium cholate and linoleic acid. […] No remarkable inhibition occurred to control samples under these conditions. Enzyme reaction was started by addition of sodium cholate and linoleic acid. The titration curve of inhibition and, consequently, the concentrations required for inhibition by the order of 50 per cent were determined by variation of active substance concentrations. For comparison, the compounds were tested also on commercial lipoxygenase-1 from soybean.

The nature of another data set: solubility in water. Particulars: visible from unambiguous clouding of the sample. The data set is classed as physicochemical.

For the compound `CCCCCCCCCCCC(=NO)c1cc(C)ccc1O` [5-methyl-2-hydroxy-laurophenone-oxime], in data set [1], the inhibition at 10 µM came to 70%. Further, the “inhibition of ovalbumin-induced asthma reaction” value with sensitised guinea pig (2 x 10 mg/kg i.p., 90 and 60 minutes prior, 40 μg ovalbumin i.v., all probands) is given as “Complete inhibition”. For the same compound, the “tolerance of additional/successive ovalbumin injections” value in the data set on sensitised guinea pig is “tolerated without reaction”; in the data set with sensitised guinea pig (listed as 5-methyl-2-hydroxyl-laurophenone-oxime) it was “tolerated without any sign of bronchoconstriction”. In addition, in data set [2], the inhibition at 1000 µM is 67%. For the same compound, the solubility in water entry in “solubility in water” was “limited solubility in water”.

For the origin of these results see patent publication US4816487A, “1-(2-hydroxyaryl)-alkane-1-on-oximes-procedure of preparation and use in pharmaceuticals” (Humboldt-Universitaet zu Berlin, priority 1985, dated 1989).
